Tests used:
[1] = system: T1D-prone NOD mice; details: monotherapy, Hadjiyanni I et al 2008; cited from earlier work
[2] = system: INS-1 cells; test: GABA production and release from insulin-secreting beta-cells (Free Amino Acid Analysis); type: cell-based
Procedure: In these in vitro assays using GLP-1-secreting and/or insulin-secreting cells, it was shown that the production and secretion of GLP-1 in the gut-derived cells (STC-1) were modulated by GABA, and the production and release of GABA from the beta-cells were also modulated by GLP-1. The specificity of these assays was determined by including the GABAAR antagonists or GLP-1 receptor antagonist in the assays.
The Free Amino Acid Analysis was performed on a Waters Acquity UPLC System. The Waters Acquity UPLC system employed consists of a Binary Solvent Manager, a Sample Manager, a TUV Detector and a Waters Acquity UPLC BEH C18 column (2.1×100 mm). Data was collected, stored and processed using Waters Empower 2 Chromatography software. Drying was done using a Tomy CC-181 Centrifugal Concentrator with a Sargent-Welch Model 8821 Vacuum pump. The operational procedures are as following: an aliquot of the sample was transferred into a 6×55 mm glass culture tube and dried under vacuum using a centrifugal evaporator. After drying, the sample was treated with a redrying solution consisting of methanol:water:triethylamine (2:2:1), vortex-mixed and dried under vacuum for 15 minutes. […] The derivatized amino acids were detected at 254 nm.
GABA concentrations were determined by the Free Amino Acid Analysis. […]

GLP-1: incretin hormone glucagon-like peptide-1, SEQ ID NO: 1
efficacy on diabetes onset in T1D-prone NOD mice [1]: only marginally effective | production and release of GABA from the beta-cells [2]: modulated
